Columns and labels:
[1] = acute toxicity (DL50) in the mouse, i.p.; conditions: in vivo, ip, Maus
[2] = therapeutic results in combination with neutrons (model not stated); conditions: in Verbindung mit Neutronen, compared with N-Trimethyl-10B-carboxyaminoboran
[3] = test system: Sarkom 180; assay: sarcoma 180 in NMRI mice: tumour size and survival, alone or with gamma rays or thermal neutrons; format: in vivo, NMRI-Mäuse; conditions: for überlebende Tiere: 40 Tage after start of treatment
From the text: Die geringe Toxizität der erfindungsgemäß verwendeten Substanz ermöglicht eine so hohe Dosierung, daß sowohl eine begrenzte Eigenwirkung zum Tragen kommt als auch insbesondere eine ausreichende Erhöhung der ^10Bor-Konzentration in den erkrankten Zellen erreicht wird. So wurde festgestellt, daß die Toxizität bei der Maus i.p. eine DL50 um 2000 m^g/k^g ergibt. Pharmakologisch wurde festgestellt, daß N-Trimethyl-^10B-carboxyaminoboran den Einbau von 125 Jod -^desoxyuridin bei der gesunden Maus senkt. Weiterhin senkt es den Einbau von ^125Jod -desoxyuridin in das Sarkom 180 der Maus.
Besonders eindrucksvoll ist die Veränderung der Überlebenszeiten der Sarkom 180 tragenden NMRI-Mäuse. Während 40 Tage nach Beginn der Behandlung von den unbehandelten und den nur mit Neutronen behandelten Tieren ca. 90% am Tumor gestorben sind, überleben zu diesem Zeitpunkt ca. 40% der nur mit N-Trimethyl-^10B-carboxy-aminoboran und ca. 75 % der mit dieser Substanz und Neutronen behandelten Tiere.
Ein Vergleich mit Natriumpentaborat und Neutronen zeigt, daß nur 20 bis 30 % der Sarkom-Tiere überleben.
(§1) Diese pharmakologischen Befunde wurden zunächst noch mit einem N-Trimethyl- B-carboxy-aminoboran erhalten, welches nur 20 % ^10Bor enthielt. Durch Steigerung des ^10Bor-Gehalts auf 80 bis 90% erhöht sich die Antitumorwirkung durch Neutroneneinfang um das. 4 bis 5-fache: • C-57 BL/6j Mäuse mit Adenocarcinom EO 771 werden in drei Gruppen aufgeteilt: • Gruppe 1 dient als Kontrolle Gruppe 2 wird 6 Minuten mit thermischen Neutronen bestrahlt Gruppe 3 erhält 10 mg N-Trimethyl-^10B-carboxyaminoboran intraperitonal (i.p.) und wird nach 6 Stunden - dem Zeitpunkt der optimalen Anreicherung im Tumorgewebe - für 6 Minuten mit thermischen Neutronen bestrahlt.

[4] = test system: gesunden Maus; assay: incorporation of 125I-deoxyuridine in the healthy mouse; format: in vivo; conditions: gesunde Maus
[5] = test system: Sarkom 180 der Maus; assay: incorporation of 125I-deoxyuridine into sarcoma 180 of the mouse; format: in vivo; conditions: in Sarkom 180 der Maus
[6] = test system: Adenocarcinom EO 771; assay: adenocarcinoma EO 771 in C-57 BL/6j mice, neutron capture therapy; format: in vivo, C-57 BL/6j Mäuse; conditions: 10 mg i.p., after 6 Stunden 6 Minuten thermische Neutronen
Description: as §1

[7] = boron accumulation in tumour tissue versus blood; format: in vivo
[8] = water solubility; format: physicochemical; conditions: for intravenous application
[9] = toxicity compared with the compound of the invention (species not stated)

Molecule: [NH3+][10BH2-]C(=O)O [Ammoniak- ^10B-carboxyboran, Ammoniak- ^10 B-carboxyboran]
- LD50 [1]: ~2500 mg/kg
- therapeutische Ergebnisse [2]: Noch bessere therapeutische Ergebnisse

Molecule: C[N+](C)(C)[BH2-]C(=O)O [N-Trimethyl- B-carboxy-aminoboran, reference compound]
- lokale oder systemische Schäden ([3]; surviving animals): An keinem der überlebenden Tiere wurden lokale oder systemische Schäden beobachtet

Molecule: C[N+](C)(C)[10BH2-]C(=O)O [N-Trimethyl-^10B-carboxyaminoboran]
- LD50 [1]: ~2000 mg/kg
- Einbau von 125Jod -desoxyuridin [4]: senkt
- Einbau von 125Jod -desoxyuridin [5]: senkt
- überlebende Tiere ([3]; substance alone): ca. 40%
- überlebende Tiere ([3]; substance and Neutronen): ca. 75%
- Tumorgröße ([3]; Sarkom 180 der Maus, substance alone): Verkleinerung des Tumors
- Tumorwachstum ([3]; combination with γ-Strahlen): positiv beeinflußt
- Tumorvolumen ([3]; simultaneous treatment with thermischen Neutronen): wesentlich stärker verkleinert als durch die Einzelkomponenten
- Tumorgröße [6]: nimmt der Tumor in Gruppe 3 nach der kombinierten Behandlung an Größe ab
- time until tumour is reduced to a minimum [6]: ~7 Tagen
- Kp ([7]; tumour to blood, 6 bis 12 Stunden after intravenous injection, read-out: Bor-Konzentration im Tumor relative to Blut): 2 to 3
- Tmax ([7]; tumour, ip, after i.p. application, read-out: Zeitpunkt der optimalen Anreicherung im Tumorgewebe): 6 h
- Wasserlöslichkeit [8]: ausreichend wasserlöslich

Molecule: Natriummonomercaptoundecahydrodecaborat
- toxicity relative to the compound of the invention [9]: ~5 mal
